Reference: doi:10.1101/2021.06.28.449968v1 (biorxiv, 2021)

Biological target: T1, full-length Abl1 NanoLuc fusion (Abl1-Nluc, NLuc-Abl1) (Homo sapiens, UniProt P00519)
T1 construct: full-length Abl1 fused to the C-terminus of NanoLuc luciferase (Promega plasmid), transiently expressed in HEK293T cells
Assay: NanoBRET tracer isotherm in live HEK293T cells
Assay type: cell-based
Conditions: labelled compound; […] h; ATP site; read-out: Kd,app
Text: NanoBRET tracer isotherm in live HEK293T cells on full-length Abl1 NanoLuc fusion (Abl1-Nluc, NLuc-Abl1) | tracer probe (K-4, Promega), suitable for all mutants

T1 sequence (P00519 whole entry, the tested form may be a part): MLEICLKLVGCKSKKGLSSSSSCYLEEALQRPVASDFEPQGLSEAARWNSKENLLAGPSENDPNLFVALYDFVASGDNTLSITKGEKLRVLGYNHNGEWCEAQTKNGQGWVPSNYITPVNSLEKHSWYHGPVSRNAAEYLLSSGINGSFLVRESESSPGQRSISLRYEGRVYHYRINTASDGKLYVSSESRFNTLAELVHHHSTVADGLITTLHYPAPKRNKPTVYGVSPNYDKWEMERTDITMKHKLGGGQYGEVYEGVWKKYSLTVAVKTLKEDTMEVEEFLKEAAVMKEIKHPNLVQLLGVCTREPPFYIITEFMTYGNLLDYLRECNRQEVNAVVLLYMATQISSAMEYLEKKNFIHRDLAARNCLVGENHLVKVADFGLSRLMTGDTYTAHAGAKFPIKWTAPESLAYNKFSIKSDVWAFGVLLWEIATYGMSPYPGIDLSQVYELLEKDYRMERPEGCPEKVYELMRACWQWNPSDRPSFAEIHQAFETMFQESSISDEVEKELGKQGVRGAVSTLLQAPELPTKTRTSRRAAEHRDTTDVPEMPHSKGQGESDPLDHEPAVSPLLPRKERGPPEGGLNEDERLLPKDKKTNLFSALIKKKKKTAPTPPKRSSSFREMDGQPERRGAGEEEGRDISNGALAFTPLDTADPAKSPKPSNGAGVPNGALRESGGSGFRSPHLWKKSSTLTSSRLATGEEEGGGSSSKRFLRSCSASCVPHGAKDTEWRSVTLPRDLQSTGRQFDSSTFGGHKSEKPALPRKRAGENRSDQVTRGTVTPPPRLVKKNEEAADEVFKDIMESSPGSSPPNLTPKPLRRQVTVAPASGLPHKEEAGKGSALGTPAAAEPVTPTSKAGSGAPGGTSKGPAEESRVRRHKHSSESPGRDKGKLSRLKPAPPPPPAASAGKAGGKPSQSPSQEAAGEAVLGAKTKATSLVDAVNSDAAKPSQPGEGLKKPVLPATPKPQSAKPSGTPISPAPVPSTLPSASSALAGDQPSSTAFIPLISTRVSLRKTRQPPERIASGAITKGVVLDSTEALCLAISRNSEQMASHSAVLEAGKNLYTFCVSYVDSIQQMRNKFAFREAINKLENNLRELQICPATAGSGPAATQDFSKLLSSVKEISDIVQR

## NanoBRET tracer K-4 (Promega)
  Kd: 0.0386 µM
